Data set [1] has as its system CYP1A2, CYP2C9, CYP2C19, CYP3A4, CYP2D6. Briefly: Cyp inhibition in human liver microsomes. Format: in vitro ADME. Conditions: In vitro tox; human liver microsomes. The procedure:
For Cyp inhibition, human live microsomes from BD Gentest were incubated with Compound 003 (10, 3.33, 1.11, 0.37, 0.12, 0.04, 0.01 μM) and substrate (CYP1A2: Phenacetin at 30 μM; CYP2C9: Diclofenac at 10 μM; CYP2C19: S-Mephenytoin at 35 μM; CYP3A4: Midazolam at 5 μM and Testosterone at 80 μM; CYP2D6: Bufuralol at 10 μM) for the following incubation times: CYP1A2, 2C9, 2D6: 10 minutes, 37° C.; CYP2C19: 45 minutes, 37° C.; CYP3A4: 5 minutes, 37° C. Substrate conversion was measured by liquid chromatography/mass spectrometry/mass spectrometry (LC/MS/MS). Inhibition was calculated by curve fitting in Graph Pad Prism.
(In general: Microsomes from liver hold many membrane-bound enzymes, among them those of drug oxidation.)

A further data set has as its target HDAC3 (Homo sapiens (Human), UniProt O15379). In words: HDAC enzyme assay, HDAC3. Type of data set: biochemical. Conditions: 24 hours pre-incubation with enzyme; read-out: IC50 (nM) HDAC3. The procedure:
(§1) Compounds for testing were diluted in DMSO to 50 fold the final concentration and a ten point three fold dilution series was made. The compounds were diluted in assay buffer (50 mM HEPES, pH 7.4, 100 mM KCl, 0.001% Tween-20, 0.05% BSA, 20 μM tris(2-carboxyethyl)phosphine) to 6 fold their final concentration. The HDAC enzymes (purchased from BPS Biosciences) were diluted to 1.5 fold their final concentration in assay buffer and pre-incubated with the compounds for 24 hours prior to addition of the substrate.
(§2) The substrate tripeptide substrate 3 (synthesized in house) for each enzyme was equal to the Km as determined by a substrate titration curve. The substrates were diluted in assay buffer at 6× their final concentration with 0.3 μM sequencing grade trypsin (Sigma). The substrate/trypsin mix was added to the enzyme/compound mix, the plate was shaken for 60 seconds and placed into a Spectramax M5 microtiter plate reader. The development of fluorescence was monitored for 30 min and the linear rate of the reaction was calculated. The IC50 was determined using Graph Pad Prism by a four parameter curve fit. The IC50 values obtained for the compounds of this invention are found in Table 1. Examples of the curves are found in FIGS. 1 and 4.

For data set [2], the system named is human peripheral blood lymphocytes (HPBL). Briefly: Micronucleus formation assay. Format: cell-based. Conditions: In vitro tox. The protocol: Genotoxicity was further evaluated by micronucleus formation assay in human peripheral blood lymphocytes (HPBL). HPBL were obtained from healthy donors and exposed to Compound 003 at […] for 4 hours with or without S9 activation. The cells were washed with PBS and incubated in complete medium with 6 μg/ml cytocholasin B for 24 hours. The cells were then lysed, fixed, and mounted on microscope slides. The number of mononucleated, binucleated, and micronucleated cells was counted under blinded conditions.

The test system of data set [3] is fetal β-like globin (HbG, γ). Briefly: Fetal globin induction assay in CD34+ cells isolated from human bone marrow. Type of data set: cell-based. The protocol: CD34+ cells isolated from human bone marrow were cultured in vitro using a method described by Bradner J E (Proc Natl Acad Sci USA. 2010 Jul. 13; 107(28):12617-22), which consists of a 7 day expansion phase in media that supports differentiation of cells towards the erythroid lineage followed by a differentiation phase for 3 days where erythroid cell development continues. At the end of the differentiation period these cells are primarily late erythroblasts. mRNA levels were determined by quantitative real time PCR using primer/probe sets designed to adult major β-globin (β), adult minor β-globin (δ), fetal β-like globin (HbG, γ), and embryonic β-like globin (ε). Protein levels were determined by flow cytometry using fluorescent antibodies against fetal hemoglobin (HbF) or adult hemoglobin (HbA).
In the experiment shown in FIG. 3, cells were differentiated in the presence of vehicle (DMSO) 0.3, 1 and 3 μM of Compound A, and of 0.3, 1, and 3 μM of Compound 003. In the experiment shown in FIG. 6, cells were differentiated in the presence of vehicle (DMSO) 0.3, 1 and 3 μM of Compound A, and of 0.3, 1, and 3 μM of Compound 005. Globin mRNA levels were determined at day 3 of differentiation.

Another data set in a line: Solubility. Format: physicochemical.
The target of a further data set is hERG channel (Homo sapiens (Human), UniProt Q12809). In words: hERG assay (QPatch, CHO cell line expressing hERG channels). Type of data set: cell-based. Conditions: In vitro tox. The procedure:
For hERG assays, a CHO cell line stably transfected with hERG cDNA and expressing hERG channels were seeded into a QPatch plate (Sophion) at a density of 3-8×10^6 cells/ml. The cells were voltage clamped at a holding potential of −80 mV. The hERG current was activated by depolarizing at +20 mV for 5 sec, after which the current was taken back to −50 mV for 5 sec to remove the inactivation and observe the deactivating tail current. The maximum amount of tail current size was used to determine hERG current amplitude. Six doses (30, 10, 3, 1, 0.3 and 0.1 μM) of Compound 003 were chosen to obtain fitting curves and IC50. Data were analyzed using Assay Software provided by Sophion and Graphpad Prism.
(In general: hERG is a cardiac potassium channel; its block is linked to QT prolongation.)

In a further data set the test system is Gata2 mRNA. In words: Gata2 mRNA induction in erythroid progenitors. Format: cell-based, human. Conditions: primary erythroid progenitors, 3 days differentiation, relative to beta-actin mRNA (FIG. 7). An excerpt:
Human bone marrow derived CD34+ cells were expanded for 7 days as described by Sankaran et al., Science, vol. 322(5909), pp. 1839-42 (2008). Cells were then differentiated, in the presence of the indicated concentration of Compound 005, Compound A (another known HDAC1/2 inhibitor), or vehicle control (DMSO), for 3 days in media supporting erythropoiesis (Hu et al., “Isolation and functional characterization of human erythroblasts at distinct stages: implications for understanding of normal and disordered erythropoiesis in vivo”, Blood, vol. 121(16), pp. 3246-53 ([…])). Gata2 mRNA was determined using quantitative real time PCR and expressed relative to the level beta-actin mRNA control.

The next data set deals with HDAC1 (Homo sapiens (Human), UniProt Q13547). Briefly: HDAC enzyme assay, HDAC1. The following applies: 24 hours pre-incubation with enzyme; read-out: IC50 (nM) HDAC1. Format: biochemical. The procedure:
as §1, §2

≈ marks a conversion by molar mass, not a printed value.

Chain of HDAC3 (O15379 whole entry): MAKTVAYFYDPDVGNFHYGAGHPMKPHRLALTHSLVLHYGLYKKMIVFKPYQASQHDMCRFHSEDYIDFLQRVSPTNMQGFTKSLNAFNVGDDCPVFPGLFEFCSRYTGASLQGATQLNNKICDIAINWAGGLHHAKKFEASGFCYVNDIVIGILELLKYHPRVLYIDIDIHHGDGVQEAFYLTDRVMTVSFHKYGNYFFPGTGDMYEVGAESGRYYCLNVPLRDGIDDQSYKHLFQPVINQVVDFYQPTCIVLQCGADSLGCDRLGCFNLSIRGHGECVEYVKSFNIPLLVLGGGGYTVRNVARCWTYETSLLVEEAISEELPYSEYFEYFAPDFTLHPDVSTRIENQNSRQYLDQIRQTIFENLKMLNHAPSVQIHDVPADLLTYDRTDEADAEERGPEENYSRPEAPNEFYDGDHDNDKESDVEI
Chain of HDAC3 (Q9Y618 395-489 partner): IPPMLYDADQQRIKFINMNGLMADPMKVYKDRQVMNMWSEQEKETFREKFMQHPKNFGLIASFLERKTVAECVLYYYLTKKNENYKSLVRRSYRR
Chain of hERG channel (Q12809 whole entry): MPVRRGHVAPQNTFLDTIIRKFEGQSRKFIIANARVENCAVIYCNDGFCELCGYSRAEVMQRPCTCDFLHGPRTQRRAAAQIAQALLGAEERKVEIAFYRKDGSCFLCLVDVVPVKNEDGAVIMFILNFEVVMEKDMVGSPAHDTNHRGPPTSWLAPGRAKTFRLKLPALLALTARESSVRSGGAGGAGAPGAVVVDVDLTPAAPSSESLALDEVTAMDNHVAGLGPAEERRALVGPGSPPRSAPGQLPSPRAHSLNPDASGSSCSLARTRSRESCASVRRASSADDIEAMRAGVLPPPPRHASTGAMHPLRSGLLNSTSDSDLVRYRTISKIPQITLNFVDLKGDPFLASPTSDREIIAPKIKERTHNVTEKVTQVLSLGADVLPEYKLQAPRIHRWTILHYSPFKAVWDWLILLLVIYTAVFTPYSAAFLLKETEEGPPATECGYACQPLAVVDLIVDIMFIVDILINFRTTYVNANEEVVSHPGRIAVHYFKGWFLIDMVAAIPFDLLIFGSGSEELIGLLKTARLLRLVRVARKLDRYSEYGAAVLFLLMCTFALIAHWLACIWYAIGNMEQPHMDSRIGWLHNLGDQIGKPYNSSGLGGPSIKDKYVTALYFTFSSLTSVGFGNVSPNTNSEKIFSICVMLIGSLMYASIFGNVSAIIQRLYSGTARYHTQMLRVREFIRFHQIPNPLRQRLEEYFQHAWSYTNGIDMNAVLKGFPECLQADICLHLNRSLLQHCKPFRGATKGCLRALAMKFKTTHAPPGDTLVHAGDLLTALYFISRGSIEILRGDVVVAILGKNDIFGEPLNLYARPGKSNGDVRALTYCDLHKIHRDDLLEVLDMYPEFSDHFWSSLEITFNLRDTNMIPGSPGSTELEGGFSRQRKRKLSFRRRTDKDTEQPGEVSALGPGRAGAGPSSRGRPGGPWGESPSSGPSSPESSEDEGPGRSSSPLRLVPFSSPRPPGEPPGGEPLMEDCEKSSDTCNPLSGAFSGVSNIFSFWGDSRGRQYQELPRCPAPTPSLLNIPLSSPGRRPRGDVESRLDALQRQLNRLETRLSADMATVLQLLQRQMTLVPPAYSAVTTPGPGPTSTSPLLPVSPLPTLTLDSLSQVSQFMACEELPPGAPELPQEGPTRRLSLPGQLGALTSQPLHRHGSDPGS
Chain of HDAC1 (Q13547 whole entry): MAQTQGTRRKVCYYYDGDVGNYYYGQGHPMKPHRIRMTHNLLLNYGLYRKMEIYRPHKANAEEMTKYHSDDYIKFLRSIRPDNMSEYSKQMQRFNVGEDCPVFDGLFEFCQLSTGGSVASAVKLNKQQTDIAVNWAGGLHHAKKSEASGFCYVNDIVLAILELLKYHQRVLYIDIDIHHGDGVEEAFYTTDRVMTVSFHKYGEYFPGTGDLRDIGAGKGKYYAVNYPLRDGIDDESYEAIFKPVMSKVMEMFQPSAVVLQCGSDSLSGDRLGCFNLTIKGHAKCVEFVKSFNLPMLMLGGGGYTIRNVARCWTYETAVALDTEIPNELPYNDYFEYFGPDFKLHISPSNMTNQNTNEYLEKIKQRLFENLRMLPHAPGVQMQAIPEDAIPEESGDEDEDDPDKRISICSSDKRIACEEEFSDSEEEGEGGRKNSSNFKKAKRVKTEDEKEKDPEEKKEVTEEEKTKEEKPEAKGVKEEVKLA

In data set [1], `CN1CCN(C(=O)N2CCC(Nc3ccc(C(=O)Nc4cc(-c5cccs5)ccc4N)cc3)CC2)CC1` [Compound 005] displayed a Cyp of more than 10 µM. For the same molecule, the figures for the IC50 on HDAC3 and on HDAC1 were 82 nM and 1.2 nM, respectively. Also, the MN entry in data set [2] is listed as “Neg”. Besides, the “Cell based assay potency” value in data set [3] (lowest concentration to achieve a 2 fold increase in fetal globin gene expression over baseline) came to 1 µM. In data set [3] (primary erythroid progenitors, 3 days differentiation (FIG. 6)), the “induction of % HbG” value is “equivalent dose and time-dependent induction”. The molecule further came in with a solubility in “Solubility” of 13.8 µM (≈ 7.16 µg/mL). Also, the hERG on hERG channel came out at 13.8 µM. The “induction of Gata2 mRNA” value in the data set on Gata2 mRNA was “equivalent dose and time-dependent induction”.

For orientation: IC50 means the midpoint of a concentration-inhibition curve. Usually solubility stands for the dissolved amount per volume that the medium holds. Higher therefore signals much dissolved substance.

Values taken from patent US9790180B2, “Piperidine derivatives as HDAC1/2 inhibitors” (Acetylon Pharmaceuticals, Inc., priority 2014, dated 2017).
